Reference: US4147869A, “3,4-Dihydrocarbostyril derivatives and process for preparing the same” (Otsuka Pharmaceutical Co., Ltd., priority 1976, dated 1979)
Counter-ions that a name gives are not always drawn. Like-named read-outs stand apart in the source and are kept apart here.

Legend:
β-adrenoreceptor = assay: β-adrenergic blocking activity in anesthetized dogs: antagonism (Inhibition %) of isoprenaline-induced responses; type: in vivo, dog; settings: 300 μg/kg i.v., 10 minutes after; for Inhibition (%) dBP (antagonism to the depression of diastolic blood pressure induced by isoprenaline) / Inhibition (%) HR (antagonism to the increase in heart rate induced by isoprenaline): isoprenaline 1 μg/kg i.v.; for Inhibition (%) AR (antagonism to the depression by isoprenaline in increase of air-way resistance induced by histamine): isoprenaline 1 μg/kg, histamine 5 μg/kg i.v.
Description: The β-adrenergic blocking activity of the compounds of this invention was determined as follows:
Male hybrid adult dogs, weighing 10 to 16 kg, were anesthesized with sodium pentobarbital administered intravenously at a level of 30 mg/kg of body weight, and a cannula was inserted into the trachea of each of the anesthesized dogs. In order to avoid blood coagulation, heparin was administered intravenously at a level of 1000 units and thereafter a cannula was inserted into the right femoral artery. The experiments were conducted under artificial respiration at a rate of 20 ml/kg, 18 r.p.m.
The above parameters were continuously recorded on a polygraph (8S 28 Type, tradename of Sanei Sokki Co., Japan). During the experiment, gallamine was administered intravenously at a dosage of 3 mg/kg at one-hour intervals to avoid fluctuation of air-way resistance.
The β-adrenergic blocking activity of each of the test compounds was evaluated in terms of antagonism (Inhibition %) to the depression at the diastolic blood pressure (dBP) and to the increase in the heart rate induced by the intravenous administration of isoprenaline (1 μg/kg) and in terms of antagonism (Inhibition %) to the depression by isoprenaline in increase of air-way resistance which was induced by intravenous administration of histamine (5 μg/kg). In this case, histamine was administered 45 seconds after the administration of isoprenaline.

[1] = acute toxicity (LD50) by intravenous and oral administration; settings: rat, in vivo, fasted 12 hours
Description: Further, the acute toxicity of the compounds of the present invention having the formula (I) was determined by intravenous administration (i.v.) and oral administration (p.o.) in 5 to 6 groups of […] (dd strain; body weight, 18 to 22 g; 10 rats in each group) which have been fasted for 12 hours prior to the test.

[2] = iv, male rats, i.v., read-out: LD50 i.v.
[3] = po, male rats, p.o., read-out: LD50 p.o.

SMILES	Inhibition (%) dBP (antagonism to the depression of diastolic blood pressure induced by isoprenaline) (β-adrenoreceptor) [%]	Inhibition (%) HR (antagonism to the increase in heart rate induced by isoprenaline) (β-adrenoreceptor) [%]	Inhibition (%) AR (antagonism to the depression by isoprenaline in increase of air-way resistance induced by histamine) (β-adrenoreceptor) [%]	LD50 [1, 2] [mg/kg]	LD50 [1, 3] [mg/kg]	LD50 ([1]; iv, female rats, i.v., read-out: LD50 i.v.) [mg/kg]	LD50 ([1]; po, female rats, p.o., read-out: LD50 p.o.) [mg/kg]
Cc1ccccc1N1CCN(CC(O)COc2ccc(NS(C)(=O)=O)c3c2CCC(=O)N3)CC1 (centres unmarked) [compound 8]	6.4	21.0	7.1	–	–	–	–
CCOC(=O)Nc1ccc(OCC(O)CNCCOc2ccc(C(N)=O)cc2)c2c1NC(=O)CC2 (centres unmarked) [compound 4]	3.4	47.3	2.5	145	1210	–	–
CC(=O)Nc1ccc2c(c1OCC(O)CNC(C)C)CCC(=O)N2 (centres unmarked) [compound 1]	17.8	25.3	11.3	–	–	–	–
NC(=O)Nc1ccc(OCC(O)CN2CCN(c3ccccc3Cl)CC2)c2c1NC(=O)CC2 (centres unmarked) [compound 9]	15.3	23.6	8.9	–	–	–	–
CC(C)(C)NCC(O)COc1cccc2c1CCC(=O)N2 (centres unmarked) [compound 11, 5-(3-t-butylamino-2-hydroxy)propoxy-3,4-dihydrocarbostyril hydrochloride, reference compound]	100	100	100	–	–	–	–
COc1ccc(CCNCC(O)COc2cccc3c2CCC(=O)N3)cc1OC (centres unmarked) [compound 13, 5-(3,4-dimethoxyphenethylamino-2-hydroxy)propoxy-3,4-dihydrocarbostyril hydrochloride, reference compound]	65.6	87.2	79.1	–	–	–	–
CC(NCC(O)COc1ccc(NC(=O)C2CCCCC2)c2c1CCC(=O)N2)c1ccccc1 (centres unmarked) [compound 5]	42.4	53.3	23.2	–	–	–	–
COc1ccc(CCNCC(O)COc2ccc(NC(C)=O)c3c2CCC(=O)N3)cc1OC (centres unmarked) [compound 2]	25.5	30.2	10.8	158	1350	142	1230
COc1ccccc1N1CCN(CC(O)COc2ccc(NC(C)=O)c3c2CCC(=O)N3)CC1 (centres unmarked) [compound 10]	11.6	21.7	6.2	125	1170	–	–
COc1ccc(OCCNCC(O)COc2ccc(NC(N)=O)c3c2CCC(=O)N3)cc1 (centres unmarked) [compound 3]	31.8	39.6	14.7	156	1340	–	–
Cc1ccc(S(=O)(=O)Nc2ccc(OCC(O)CNCCOc3ccc(C(N)=O)cc3)c3c2NC(=O)CC3)cc1 (centres unmarked) [compound 7]	11.4	26.8	10.2	115	1120	–	–
COc1ccc(CCNCC(O)COc2c(NC(C)=O)ccc3c2CCC(=O)N3)cc1OC (centres unmarked) [compound 6]	11.3	37.2	12.6	160	1380	–	–
